# Laboratory results taken from patent publication US9388389B2, “JFH-1 based HCV cell culture systems for NS5A of genotypes 1-7” (Hvidovre Hospital, priority 2009, dated 2016).
# Values joined by “and” are separate entries in the source; they are usually repeats but may differ in a detail not shown here. Equal values may be shown once.
# What was measured:
# Huh7.5 cells [1] = experiment: Genetic stability, direct sequencing of complete ORF after passage; details: Table 2; ORF sequenced after passage to naïve cells
# Description: RNA was extracted from cell culture supernatant using (Highly Pure Viral Nucleic Acid Kit™, Roche, Mannheim, Del.). RT-PCR was done using SuperScriptIII™ (Invitrogen, Carlsbad, Calif., USA). In 1st round PCR the Advantage 2 PCR Enzyme System was used. Cycle parameters were 35 s at 99° C., 30 s at 67° C. and 10 min (cycle 1-5), 11 min (cycle 6-15), 12 min (cycle 16-25) or 13 min (cycle 26-35) at 68° C. 12˜1 kb products were synthesized in overlapping nested PCRs covering the entire ORF using primer pairs as previously described. Primer pairs 8, 9 and 10 were modified to the genotype specific NS5A sequence (Table 20, SEQ ID NO 163-192). Cycle parameters were 35 s at 99° C. followed by 35 cycles with 35 s at 99° C., 30 s at 67° C. and 6 min at 68° C.
# All sequence reactions were performed at Macrogen Inc., Seoul, South Korea. Sequence analysis was performed with Sequencher™ (Gene Codes Corporation) Vector NTI 11 (Invitrogen) and BioEdit™ (Tom Hall, Ibis Therapeutics). HCV sequences were retrieved from the European HCV database (euHCVdb; at the http: internet location //euhcvdb.ibcp.fr/euHCVdb/) and the Los Alamos HCV sequence database (LANL; at the http: Internet location //hcv.lanl.gov/content/hcv-db/index).
# Genetic stability of NS5A recombinants after passage to naïve cells. Supernatant samples from transfection culture were passaged to naïve Huh7.5 cells and the complete ORF was sequenced after spread of infection in culture to check for further need of adaptation.
# Huh7.5 cells [2] = experiment: Infectivity titers (FFU) in supernatant after RNA transfection or viral passage; type: cell-based; details: for Transfection Log(FFU/mL) / 1st passage Log(FFU/mL): Table 1b; for Transfection Log(FFU/mL): maximum infectivity titer after transfection, Core-NS2 and NS5A of same genotype; for 1st passage Log(FFU/mL): maximum infectivity titer, two values separated by slash = two independent passages; for Peak titers Transfection Log (FFUs/mL) / Peak titers Viral passage Log (FFUs/mL): Table 2; for Peak titers Transfection Log (FFUs/mL): maximum infectivity titer observed in transfection experiments; for Peak titers Viral passage Log (FFUs/mL): maximum infectivity titer observed in viral passage experiments
# Description: (§1) To determine the efficiency of the developed system, HCV RNA titers are determined in IU/ml (international units/ml) with Taq-Man Real-Time-PCR and infectious titers are determined with a focus-forming units (FFU) method: in this method, infectivity titers are determined by infection of cell culture replicates with serial dilutions of virus containing supernatants and, following immuno-stainings for HCV antigens, counting of HCV-antigen positive cell foci. Alternatively the infectious titers are determined as 50% tissue culture infectious dose.
# (§2) Culturing of Huh7.5 cells was done as described by Gottwein et al. 2007. One day prior to transfection or infection, naïve Huh7.5 cells were plated at 4×10^5/well in 6-well plates. In vitro transcription was carried out for 2 hours with T7 RNA polymerase (Promega) on 5 μg plasmid linearized with XbaI and treated with Mung Bean Nuclease (New England Biolabs, Beverly, Mass., USA) to yield the exact HCV 3′ end. For transfection, 2.5 μg of unpurified RNA transcripts were incubated with 5 μL Lipofectamine2000™ (Invitrogen) in 500 μL Opti-MEM (Invitrogen) for 20 min at room temperature. RNA-Lipofectamine2000™ transfection complexes were left on cells for 16-24 hours before washing. For infection, virus-containing supernatant was left on cells for 6-24 hours. Supernatants collected during experiments were sterile filtered and stored at −80° C.
# (§3) Anti-Core immunostaining was done with mouse anti-HCV Core protein monoclonal antibody (B2) (Anogen Mississauga, Ontario, Canada) as primary antibody and Alexa Fluor 594 goat anti-mouse IgG (H+L) (Invitrogen) as secondary antibody. HCV RNA titers were determined by a TaqMan™ real-time PCR assay. Infectivity titers were determined as follows: 6×10^3 naïve Huh7.5 cells were plated per well in a poly-D-lysine coated 96-well plate (Nunc) one day before inoculation with three replicates of individual 10-fold dilutions of cell culture supernatants. Inocula were left on cells for 48 hours and cells were fixed using ice could methanol. After washing, blocking buffer (1% BSA, 0.2% skim milk) was added for 20 min and endogenous peroxidases were inhibited by application of H2O2 for 5 min. Primary antibody (anti-NS3, clone H26, Abcam, Cambridge, UK) diluted 1:1000 was left on cells for 3-4 days. Secondary antibody was ECL anti-mouse IgG HRP-linked whole antibody (GE Healthcare Amersham, Brondby, Denmark). Staining was developed using DAB substrate kit (DAKO, Glostrup, Denmark). The number of focus-forming units (FFU) per well were counted manually (dilutions with 5-100 FFU counted) or automatically. Automatic counting was performed on an ImmunoSpot Series 5 UV Analyzer™ (CTL Europe GmbH, Aalen, Baden-Württemberg, DE) with customized software. From FFU counts in experimental wells, the mean of spot counts of negative control wells was subtracted (typically around 5 spots).
# Huh7.5 cells [3] = experiment: HCV RNA titers by TaqMan real-time PCR; type: cell-based; details: for 1st passage Log(IU/mL): Table 1b, maximum HCV RNA titer, two values separated by slash = two independent passages
# Description: as §1, §3
# Huh7.5 cells [4] = experiment: Spread of infection in culture, anti-Core immunostaining; type: cell-based; details: Huh7.5 cells, after transfection of RNA transcripts
# Description: as §2, §3
Substance,Genetically stable (Huh7.5 cells [1]),Transfection Log(FFU/mL) (Huh7.5 cells [2]),1st passage Log(FFU/mL) (Huh7.5 cells [2]),Peak titers Transfection Log (FFUs/mL) (Huh7.5 cells [2]),Peak titers Viral passage Log (FFUs/mL) (Huh7.5 cells [2]),infectivity titers in 1st passage / after passage to naïve cells (Huh7.5 cells [2]; naïve Huh7.5 cells),1st passage Log(IU/mL) (Huh7.5 cells [3]),"Peak titers Viral passage Log (IU/mL) (Huh7.5 cells [3]; Table 2, maximum HCV RNA titer in all passage samples analyzed)","spread in culture / to the majority of culture, day after transfection (Huh7.5 cells [4]) [days]"
"J4/JFH12996, 4827(J4-NS5A)3893: J4 Core-NS2/NS5A recombinant with T3893A, SEQ ID NO 48",Yes,2.5 Log(FFU/mL),<2.3 Log(FFU/mL),2.5 Log (FFUs/mL),<2.3 Log (FFUs/mL),,,,
"J4/JFH12996, 4827(J4-NS5A): JFH1-based recombinant with Core-NS2 and NS5A of genotype 1b J4, SEQ ID NO 47",,,1.0 Log(FFU/mL) and 1.3 Log(FFU/mL),,,,,,
"QC69/JFH12985(QC69-NS5A): JFH1-based recombinant with Core-NS2 and NS5A of genotype 7a QC69, SEQ ID NO 58",Yes,2.7 Log(FFU/mL),4.1 Log(FFU/mL),2.7 Log (FFUs/mL),4.1 Log (FFUs/mL),above 10^3 FFU/mL,7.3 Log(IU/mL),7.3 Log (IU/mL),
"S52/JFH12718, 4550(S52-NS5A)7625: S52 Core-NS2/NS5A recombinant with T7625C, SEQ ID NO 50",Yes,2.9 Log(FFU/mL),3.8 Log(FFU/mL),2.9 Log (FFUs/mL),3.8 Log (FFUs/mL),,,,
"S52/JFH12718, 4550(S52-NS5A): JFH1-based recombinant with Core-NS2 and NS5A of genotype 3a S52, SEQ ID NO 49",,2.1 Log(FFU/mL) and 2.4 Log(FFU/mL),3.1 Log(FFU/mL),,,,7.0 Log(IU/mL),,
"SA13/JFH1(SA13-NS5A): SA13 Core-NS2/NS5A recombinant without mutations adaptive for SA13/JFH1, SEQ ID NO 53",,4.0 Log(FFU/mL),,,,,,,20
"SA13/JFH13405, 3696(SA13-NS5A)6284, 7604: SA13 Core-NS2/NS5A recombinant with A6275G and T7604C, SEQ ID NO 55",Yes,4.5 Log(FFU/mL),3.8 Log(FFU/mL),4.5 Log (FFUs/mL),3.8 Log (FFUs/mL),,,,
